Tested on: 377384-186-R-J1-PDC complex spheroid viability
Assay: Anticancer human tumor 377384-186-R-J1-PDC patient-derived pancreatic carcinoma cell line growth inhibition [RAS]
Details: for IC50: curve of first compound; for viability, T/C: stronger effect = lower value; active means viability on the fitted dose curve at most 10% of control; inactive means the rest
Procedure, shortened: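 Tumour cells grown as complex spheroids with HUVEC endothelial cells and mesenchymal stem cells, treated with RAS pathway inhibitor combinations. Each agent spans half-log steps from near clinical Cmax, or 10 microM where Cmax is unknown.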

[1] = second compound 0.000949 µM, first compound 0.00316 µM
[2] = second compound 0.000949 µM, first compound 0.01 µM
[3] = second compound 0.000949 µM, first compound 0.0316 µM
[4] = second compound 0.000949 µM, first compound 0.1 µM
[5] = second compound 0.003 µM, first compound 0.00316 µM
[6] = second compound 0.003 µM, first compound 0.01 µM
[7] = second compound 0.003 µM, first compound 0.0316 µM
[8] = second compound 0.003 µM, first compound 0.1 µM
[9] = second compound 0.00949 µM, first compound 0.00316 µM
[10] = second compound 0.00949 µM, first compound 0.01 µM
[11] = second compound 0.00949 µM, first compound 0.0316 µM
[12] = second compound 0.00949 µM, first compound 0.1 µM
[13] = second compound 0.03 µM, first compound 0.00316 µM
[14] = second compound 0.03 µM, first compound 0.01 µM
[15] = second compound 0.03 µM, first compound 0.0316 µM
[16] = second compound 0.03 µM, first compound 0.1 µM
[17] = second compound 0.0949 µM, first compound 0.00316 µM
[18] = second compound 0.0949 µM, first compound 0.01 µM
[19] = second compound 0.0949 µM, first compound 0.0316 µM
[20] = second compound 0.0949 µM, first compound 0.1 µM
[21] = second compound 0.3 µM, first compound 0.00316 µM
[22] = second compound 0.3 µM, first compound 0.01 µM
[23] = second compound 0.3 µM, first compound 0.0316 µM
[24] = second compound 0.3 µM, first compound 0.1 µM
[25] = second compound 0.000949 µM, first compound 0.316 µM
[26] = second compound 0.000949 µM, first compound 1 µM
[27] = second compound 0.003 µM, first compound 0.316 µM
[28] = second compound 0.003 µM, first compound 1 µM
[29] = second compound 0.00949 µM, first compound 0.316 µM
[30] = second compound 0.00949 µM, first compound 1 µM
[31] = second compound 0.03 µM, first compound 0.316 µM
[32] = second compound 0.03 µM, first compound 1 µM
[33] = second compound 0.0949 µM, first compound 0.316 µM
[34] = second compound 0.0949 µM, first compound 1 µM
[35] = second compound 0.3 µM, first compound 0.316 µM
[36] = second compound 0.3 µM, first compound 1 µM
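Further: spheroids exposed to compounds for seven days before readout.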

CC(C)n1nc(-c2ccc3oc(N)nc3c2)c2c(N)ncnc21 + CCn1c(-c2cccnc2C(C)OC)c2c3cc(ccc31)N1CCOC(CC(NC(=O)C(C(C)C)N(C)C(=O)C3(F)CCN(C(=O)C#CC(C)(C)N(C)C)CC3)C(=O)N3CCCC(N3)C(=O)OCC(C)(C)C2)C1
> 100 nM: IC50 (second compound 0.000949 µM) | IC50 (second compound 0.003 µM) | IC50 (second compound 0.00949 µM) | IC50 (second compound 0.03 µM) | IC50 (second compound 0.0949 µM)
7.68 nM: IC50 (second compound 0.3 µM)
inactive: viability, T/C (second compound 0.000949 µM, first compound 0.000316 µM) 96.9% | viability, T/C (second compound 0.000949 µM, first compound 0.001 µM) 92% | viability, T/C [1] 80.3% | viability, T/C [2] 62.1% | viability, T/C [3] 31.9% | viability, T/C [4] 99% | viability, T/C (second compound 0.003 µM, first compound 0.000316 µM) 93.8% | viability, T/C (second compound 0.003 µM, first compound 0.001 µM) 84.8% | viability, T/C [5] 86.8% | viability, T/C [6] 59.4% | viability, T/C [7] 37.1% | viability, T/C [8] 98.4% | viability, T/C (second compound 0.00949 µM, first compound 0.000316 µM) 96.2% | viability, T/C (second compound 0.00949 µM, first compound 0.001 µM) 91.7% | viability, T/C [9] 66.6% | viability, T/C [10] 55.8% | viability, T/C [11] 34.1% | viability, T/C [12] 89.8% | viability, T/C (second compound 0.03 µM, first compound 0.000316 µM) 86.6% | viability, T/C (second compound 0.03 µM, first compound 0.001 µM) 78.1% | viability, T/C [13] 72.3% | viability, T/C [14] 53.8% | viability, T/C [15] 33.7% | viability, T/C [16] 101% | viability, T/C (second compound 0.0949 µM, first compound 0.000316 µM) 77% | viability, T/C (second compound 0.0949 µM, first compound 0.001 µM) 82.2% | viability, T/C [17] 71.4% | viability, T/C [18] 55% | viability, T/C [19] 37.9% | viability, T/C [20] 69.3% | viability, T/C (second compound 0.3 µM, first compound 0.000316 µM) 68.8% | viability, T/C (second compound 0.3 µM, first compound 0.001 µM) 74.7% | viability, T/C [21] 66.8% | viability, T/C [22] 45.7% | viability, T/C [23] 27.2% | viability, T/C [24] 56.1%

CCN1CCN(Cc2ccc(Nc3ncc(F)c(-c4cc(F)c5nc(C)n(C(C)C)c5c4)n3)nc2)CC1 + CCn1c(-c2cccnc2C(C)OC)c2c3cc(ccc31)N1CCOC(CC(NC(=O)C(C(C)C)N(C)C(=O)C3(F)CCN(C(=O)C#CC(C)(C)N(C)C)CC3)C(=O)N3CCCC(N3)C(=O)OCC(C)(C)C2)C1
178 nM: IC50 (second compound 0.0949 µM)
222 nM: IC50 (second compound 0.003 µM)
315 nM: IC50 (second compound 0.000949 µM)
83.7 nM: IC50 (second compound 0.3 µM)
257 nM: IC50 (second compound 0.00949 µM)
inactive: viability, T/C [1] 97% | viability, T/C [2] 75.4% | viability, T/C [3] 68.4% | viability, T/C [4] 65.8% | viability, T/C [25] 46.6% | viability, T/C [26] 42% | viability, T/C [5] 96% | viability, T/C [6] 78.7% | viability, T/C [7] 75.3% | viability, T/C [8] 54.6% | viability, T/C [27] 45.8% | viability, T/C [28] 41.3% | viability, T/C [9] 102% | viability, T/C [10] 93.4% | viability, T/C [11] 65.2% | viability, T/C [12] 60% | viability, T/C [29] 50.2% | viability, T/C [30] 43.2% | viability, T/C [13] 81.2% | viability, T/C [14] 89.2% | viability, T/C [15] 75.9% | viability, T/C [16] 52% | viability, T/C [31] 43% | viability, T/C [32] 44.5% | viability, T/C [17] 85% | viability, T/C [18] 83.3% | viability, T/C [19] 73.9% | viability, T/C [20] 58.8% | viability, T/C [33] 41.3% | viability, T/C [34] 34.5% | viability, T/C [21] 75.3% | viability, T/C [22] 73% | viability, T/C [23] 64.2% | viability, T/C [24] 48.4% | viability, T/C [35] 34.5% | viability, T/C [36] 35.3%
126 nM: IC50 (second compound 0.03 µM)

C[C@@H](NC(=O)c1ncnc(N)c1Cl)c1ncc(C(=O)Nc2cc(C(F)(F)F)c(Cl)cn2)s1 + CCn1c(-c2cccnc2C(C)OC)c2c3cc(ccc31)N1CCOC(CC(NC(=O)C(C(C)C)N(C)C(=O)C3(F)CCN(C(=O)C#CC(C)(C)N(C)C)CC3)C(=O)N3CCCC(N3)C(=O)OCC(C)(C)C2)C1
inactive: viability, T/C [3] 106% | viability, T/C [4] 109% | viability, T/C [25] 113% | viability, T/C [26] 133% | viability, T/C (second compound 0.000949 µM, first compound 3.16 µM) 128% | viability, T/C (second compound 0.000949 µM, first compound 10 µM) 111% | viability, T/C [7] 102% | viability, T/C [8] 104% | viability, T/C [27] 120% | viability, T/C [28] 134% | viability, T/C (second compound 0.003 µM, first compound 3.16 µM) 127% | viability, T/C (second compound 0.003 µM, first compound 10 µM) 108% | viability, T/C [11] 98% | viability, T/C [12] 114% | viability, T/C [29] 106% | viability, T/C [30] 129% | viability, T/C (second compound 0.00949 µM, first compound 3.16 µM) 150% | viability, T/C (second compound 0.00949 µM, first compound 10 µM) 108% | viability, T/C [15] 110% | viability, T/C [16] 106% | viability, T/C [31] 129% | viability, T/C [32] 115% | viability, T/C (second compound 0.03 µM, first compound 3.16 µM) 142% | viability, T/C (second compound 0.03 µM, first compound 10 µM) 103% | viability, T/C [19] 96.8% | viability, T/C [20] 98.5% | viability, T/C [33] 113% | viability, T/C [34] 118% | viability, T/C (second compound 0.0949 µM, first compound 3.16 µM) 130% | viability, T/C (second compound 0.0949 µM, first compound 10 µM) 99.6% | viability, T/C [23] 88.1% | viability, T/C [24] 89.3% | viability, T/C [35] 85.5% | viability, T/C [36] 95.9% | viability, T/C (second compound 0.3 µM, first compound 3.16 µM) 108% | viability, T/C (second compound 0.3 µM, first compound 10 µM) 82.4%
> 10000 nM: IC50 (second compound 0.000949 µM) | IC50 (second compound 0.003 µM) | IC50 (second compound 0.00949 µM) | IC50 (second compound 0.03 µM) | IC50 (second compound 0.0949 µM) | IC50 (second compound 0.3 µM)
